Measurements from patent US11331364B2, “Use for JNK inhibitor molecules for treatment of various diseases” (Xigen Inflammation Ltd., priority 2014, dated 2022).
Read-outs that look alike come from different tables or passages of the source. Square brackets hold non-standard residues; d marks the D form. Peptide text beside a SMILES is read from it.

Columns and labels:
hJNK3 = hJNK3 (Homo sapiens, UniProt P53779); test: hJNK3 | IC50
Excerpt: (§1) Table printed on a drawing sheet, Fig. 4
Head of the field: hJNK3 | IC50
(§2) The patent's description of the figure: FIG. 4: Table illustrating the inhibitory efficacy of several JNK inhibitors according to the present invention, which are fusion proteins of a JNK inhibitory (poly-)peptide sequence and a transporter sequence. Given are the IC50 values in the nM range, the respective standard error of the mean (SEM) and the number of experiments performed (n).
(§3) First copying reader's note: The sheet prints no unit for IC50 (the description says nM range); decimal commas are used, except for three IC50 cells printed with a point (3820.81, 5340.33, 8130.86).
Where the first naming reader finds the target: head: hJNK3 | IC50

hJNK2 = hJNK2 (Homo sapiens, UniProt P45984); test: hJNK2 | IC50
Excerpt: as §1
Head of the field: hJNK2 | IC50
as §2, §3
Where the first naming reader finds the target: head: hJNK2 | IC50

hJNK1 = target: T1, hJNK1 (Homo sapiens, UniProt P45983); test: hJNK1 | IC50
T1 construct: His; purchased Upstate 14-327
Excerpt: as §1
Head of the field: hJNK1 | IC50
as §2, §3
Where the first naming reader finds the target: head: hJNK1 | IC50

hJNK3, sequence (P53779 whole entry, looked up): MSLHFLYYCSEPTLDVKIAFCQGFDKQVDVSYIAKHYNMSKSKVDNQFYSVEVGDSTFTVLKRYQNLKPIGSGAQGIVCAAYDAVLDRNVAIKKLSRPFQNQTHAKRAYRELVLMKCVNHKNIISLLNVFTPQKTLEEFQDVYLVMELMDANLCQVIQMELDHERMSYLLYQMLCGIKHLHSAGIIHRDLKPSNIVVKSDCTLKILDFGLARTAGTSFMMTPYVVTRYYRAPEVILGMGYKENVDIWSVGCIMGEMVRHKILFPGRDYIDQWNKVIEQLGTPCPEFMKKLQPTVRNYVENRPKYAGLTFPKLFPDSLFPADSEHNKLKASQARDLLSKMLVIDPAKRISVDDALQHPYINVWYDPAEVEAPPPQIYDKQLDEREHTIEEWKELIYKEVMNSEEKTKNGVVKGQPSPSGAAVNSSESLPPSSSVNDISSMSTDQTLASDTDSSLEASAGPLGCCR
T1 sequence (P45983 whole entry, looked up): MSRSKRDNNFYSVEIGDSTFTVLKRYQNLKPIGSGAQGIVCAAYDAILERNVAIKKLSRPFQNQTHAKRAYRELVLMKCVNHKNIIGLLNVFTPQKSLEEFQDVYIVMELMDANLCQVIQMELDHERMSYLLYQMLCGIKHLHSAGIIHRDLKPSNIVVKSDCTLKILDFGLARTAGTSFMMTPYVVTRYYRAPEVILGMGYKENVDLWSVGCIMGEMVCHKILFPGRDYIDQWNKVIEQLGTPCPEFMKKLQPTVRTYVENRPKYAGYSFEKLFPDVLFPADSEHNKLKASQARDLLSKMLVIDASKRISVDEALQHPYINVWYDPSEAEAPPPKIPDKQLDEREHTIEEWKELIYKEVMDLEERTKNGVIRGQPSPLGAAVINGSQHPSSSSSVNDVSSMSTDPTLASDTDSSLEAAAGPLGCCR
hJNK2, sequence (P45984 whole entry, looked up): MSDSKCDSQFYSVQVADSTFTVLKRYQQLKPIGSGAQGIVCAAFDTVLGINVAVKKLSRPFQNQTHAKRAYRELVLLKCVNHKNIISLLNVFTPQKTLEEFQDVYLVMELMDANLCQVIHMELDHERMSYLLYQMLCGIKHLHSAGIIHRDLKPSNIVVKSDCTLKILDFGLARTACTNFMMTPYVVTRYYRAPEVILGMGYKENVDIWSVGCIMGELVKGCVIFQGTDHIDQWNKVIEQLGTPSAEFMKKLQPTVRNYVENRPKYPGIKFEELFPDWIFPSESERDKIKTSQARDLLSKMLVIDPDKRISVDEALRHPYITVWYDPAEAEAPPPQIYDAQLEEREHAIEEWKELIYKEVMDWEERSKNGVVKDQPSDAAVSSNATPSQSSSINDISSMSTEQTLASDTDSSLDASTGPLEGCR

IC50 (hJNK3; read-out: hJNK3 | IC50) [nM]	IC50 (hJNK2; read-out: hJNK2 | IC50) [nM]	IC50 (hJNK1; read-out: hJNK1 | IC50) [nM]	SMILES	IC50 (hJNK3) [nM]	IC50 (hJNK2) [nM]	IC50 (hJNK1) [nM]
30.4	109	329	CC(C)C[C@H](NC(=O)[C@@H](NC(=O)[C@@H](NC(=O)[C@@H]1CCCN1C(=O)[C@H](CCCNC(=N)N)NC(=O)[C@@H](CCCNC(=N)N)NC(=O)[C@H](CCCNC(=N)N)NC(=O)[C@H](CCCNC(=N)N)NC(=O)[C@H](CCC(N)=O)NC(=O)[C@@H](CCCNC(=N)N)NC(=O)[C@H](CCCNC(=N)N)NC(=O)[C@H](CCCCN)NC(=O)[C@H](CCCCN)NC(=O)[C@H](N)CCCNC(=N)N)[C@@H](C)O)[C@@H](C)O)C(=O)N[C@H](CCCNC(=N)N)C(=O)N[C@@H](CC(C)C)C(=O)N[C@H](Cc1c[nH]c2ccccc12)C(N)=O [SEQ ID NO: 178, rKKRrQRRrRPTTLrLw] (H-[dR]KKR[dR]QRR[dR]RPTTL[dR]L[dW]-NH2)	–	–	–
1290	802	24400	CC(C)C[C@@H](NC(=O)[C@@H](Cc1ccccc1)NC(=O)[C@H]1CCCN1C(=O)[C@@H](CCC(N)=O)NC(=O)[C@H](NC(=O)[C@H]1CCCN1C(=O)[C@@H](CCCNC(=N)N)NC(=O)[C@@H](CO)NC(=O)[C@@H](CCC(N)=O)NC(=O)[C@H](N)CC(=O)O)C(C)C)C(=O)N[C@H](CC(N)=O)C(=O)N[C@H](CC(C)C)C(=O)N[C@@H](C(=O)N[C@@H](C(=O)N1CCC[C@@H]1C(=O)N[C@H](CCCNC(=N)N)C(=O)N[C@H](CCCCN)C(=O)N1CCC[C@@H]1C(=O)N[C@H](CCCNC(=N)N)C(=O)N1CCC[C@@H]1C(=O)N1CCC[C@@H]1C(=O)N[C@H](CCCNC(=N)N)C(=O)N[C@H](CCCNC(=N)N)C(=O)N[C@H](CCCNC(=N)N)C(=O)N[C@H](CCC(N)=O)C(=O)N[C@H](CCCNC(=N)N)C(=O)N[C@H](CCCNC(=N)N)C(=O)N[C@H](CCCCN)C(=O)N[C@H](CCCCN)C(=O)N[C@H](CCCNC(=N)N)C(=O)NCC(N)=O)[C@H](C)O)[C@H](C)O [SEQ ID NO: 197, dqsrpvqpflnlttprkprpprrrqrrkkrg] (H-[dD][dQ][dS][dR][dP][dV][dQ][dP][dF][dL][dN][dL][dT][dT][dP][dR][dK][dP][dR][dP][dP][dR][dR][dR][dQ][dR][dR][dK][dK][dR]G-NH2)	–	–	–
–	–	–	CC(C)C[C@H](NC(=O)[C@H](C)NC(=O)[C@H](CCCCN)NC(=O)[C@H](CCCNC(=N)N)NC(=O)[C@H](CCCCN)NC(=O)CNC(=O)[C@@H](CCCNC(=N)N)NC(=O)[C@H](CCCNC(=N)N)NC(=O)[C@H](CCCNC(=N)N)NC(=O)[C@H](CCC(N)=O)NC(=O)[C@@H](CCCNC(=N)N)NC(=O)[C@H](CCCNC(=N)N)NC(=O)[C@H](CCCCN)NC(=O)[C@H](CCCCN)NC(=O)[C@H](N)CCCNC(=N)N)C(=O)N[C@H](CCCNC(=N)N)C(=O)N[C@@H](CC(C)C)C(=O)N[C@H](Cc1ccccc1)C(N)=O [SEQ ID NO: 189, rKKRrQRRrGKRKALrLf] (H-[dR]KKR[dR]QRR[dR]GKRKAL[dR]L[dF]-NH2)	128	176	22300
